Experimental data published in US4921871A, “Enolamides, pharmaceutical compositions and methods of use thereof for treating inflammation” (Warner-Lambert Company, priority 1987, dated 1990).
One block for each compound: values may come before it.

Columns and labels:
[1] = target: T1, human leukocyte 5-lipoxygenase (Homo sapiens, UniProt P09917); assay: 5-Lipoxygenase assay in human leukocytes, formation of 5-HETE (5LOA; 5LOA1 or 5LOA2 not specified); format: cell-based
T1 construct: endogenous in cells; host or cells: leukocytes from fresh human blood
T1 sequence (P09917 1-674): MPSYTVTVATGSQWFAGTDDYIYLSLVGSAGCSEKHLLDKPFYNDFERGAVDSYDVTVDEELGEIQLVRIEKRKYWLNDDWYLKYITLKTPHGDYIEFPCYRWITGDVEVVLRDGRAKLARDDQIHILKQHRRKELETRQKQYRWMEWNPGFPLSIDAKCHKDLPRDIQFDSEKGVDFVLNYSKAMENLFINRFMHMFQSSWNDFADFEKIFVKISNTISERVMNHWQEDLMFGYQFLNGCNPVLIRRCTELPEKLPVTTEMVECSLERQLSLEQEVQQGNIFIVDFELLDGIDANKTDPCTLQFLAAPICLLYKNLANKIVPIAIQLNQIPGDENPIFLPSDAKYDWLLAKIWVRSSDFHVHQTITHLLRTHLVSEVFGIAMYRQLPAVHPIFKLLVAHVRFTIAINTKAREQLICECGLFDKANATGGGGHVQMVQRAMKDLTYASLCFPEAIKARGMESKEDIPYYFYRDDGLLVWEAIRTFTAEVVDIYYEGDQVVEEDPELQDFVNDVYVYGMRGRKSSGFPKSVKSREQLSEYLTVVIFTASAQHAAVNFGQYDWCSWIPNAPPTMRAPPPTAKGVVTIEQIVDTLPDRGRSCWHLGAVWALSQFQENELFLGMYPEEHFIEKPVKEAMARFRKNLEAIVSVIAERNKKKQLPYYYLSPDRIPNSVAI
Source text: To Evaluate the Effect of Each Compounds as a 5-Lipoxygenase Inhibitor in Comparison to Standard Reference Agents in Human Leukocytes (5LOAl)
The purpose of this assay is to evaluate the activity of each compound as an inhibitor of human leukocyte 5-lipoxygenase.
Arachidonic acid and calcium ionophore A23l87 are obtained from Sigma (St. Louis, Mo.). Silica gel plates, GF are obtained from Analtech (Newark, Del.). Arachidonic acid, (1-^14 C) and 5-HETE (^3 H), 5 (S)-hydroxy-6-trans, 8,11,14-cis eicosatetraenoic acid, are obtained from New England Nuclear (Boston, Mass.). Six percent Dextran-70 in 0.9% NaCl is obtained from Cutter Labs (Berkeley, Calif.).
Fresh blood from normal adult men who had not received any drugs for at least the previous five days is obtained by the Community Research Clinic (WL/PD) using venipuncture and collected into heparinized vacuotainer tubes. To every 100 ml of pooled blood is added 25 ml of dextran solution (6% dextran -70 in 0.9% sodium chloride containing 3% dextrose) and this is mixed gently in a plastic cylinder. The mixture is left to stand at room temperature for at least 90 minutes. The upper layer which is rich in leukocytes and platelets is then carefully decanted into 50 ml plastic tubes and centrifuged at about 100×g for eight minutes in an IEC centrifuge and rotor number 269 (about 600 rpm). The supernatant fluid is discarded and the pellet is resuspended in 10 ml of 0.87% ammonium chloride for exactly two minutes. This procedure is to lyse completely contaminating red blood cells. Leukocytes are then separated by centrifugation for ten minutes. The pellet is washed three times by suspension in 20 ml PBS (sodium chloride, 7.1 g; Na2 HPO4, 1.15 g; KH2 PO4, 0.2 g, and KCl, 0.2 g/L) and centrifuged as before. The final pellet is suspended in PBS containing 0.87 mM CaCl2. Viability of the cells is then checked using trypan blue exclusion method and is found to be over 90%.
Leukocyte cells in suspension (0.98 ml) are incubated with or without test compounds for five minutes at 37° C. in a shaking water bath. At this time a 17 μl mixture is prepared per 1 ml of cell suspension: 100 mM arachidonic acid, 1 μl, 0.05 μCi ^14 C-arachidonic acid in 5 .rho.l; 1 mM calcium ionophore A23187, 10 μl (1). This mixture is added and the incubation continued for five minutes. The reaction is stopped by adding four volumes of absolute ethanol and the mixture is kept in ice for 30 minutes. The floculated precipitate is separated by centrifugation at about 37,000×g for 20 minutes (Beckman Instruments rotor number 40). The alcohol extract is taken to dryness under a stream of nitrogen and the residue is dissolved in 100-200 μl absolute ethanol. At the time any turbidity is removed by centrifugation. An aliquot (25-50 μl) is applied onto 20×20 cm silica gel TLC plate and developed using the following solvent system: diethyl ether, petroleum ether (2040° C.), acetic acid (50:50: 1 v/v). Zones of 1 cm apart are scraped from the TLC plate and transferred to mini-vials. Methanol (0.5 ml) is added to dissolve the radioactivity adsorbed to the silica gel and scintillation fluid (H.P., Beckman), 5 ml is then added and vials are counted in a liquid scintillation counter. A sample of ^3 H-5-HETE is applied and used for the identification of the formed 5-HETE.
Total radioactivity in the test as well as the control samples are normalized and the amount of 5-HETE present is calculated accordingly.
IC50 values are defined as the concentrations of test agents which caused a 50% inhibition of the formation of 5-HETE as compared to control and are determined by inspection of the concentration-response curves.
The formation of 5-HETE in human leukocytes is considered a measure of 5-lipoxygenase activity. The protocol is described in the following.
Fresh heparinized or EDTA treated human blood is mixed with 6% dextran-3% dextrose in isotonic saline in the ratio 0.25 ml dextran solution per 1.0 ml blood. […]

[2] = test system: Human Leukocyte Lipoxygenase; assay: Human Leukocyte Lipoxygenase Assay (LDA-H); format: biochemical
Protocol: Whole blood is collected from normal volunteers and spun in a refrigerated centrifuge for four minutes at 1°-6° C. at 3800 g. The buffy coat is manually separated and washed twice with chilled 0.83% NH4 Cl and centrifuged at 1000 RPM for ten minutes at 4° C. The white cell is suspended in culture media-EMEM supplemented with 6% Agamma human serum, tricine buffer, and neomycin and recentrifuged at 1000 g to yield a pellet containing the leukocytes used for the preparation of the acetone pentane powder.
The acetone-pentane powder is prepared utilizing a modification of the procedure reported for human platelet lipoxygenase. See Siegel, et al, Arachidonate Metabolism via Lipoxygenase and 12-L-hydro-peroxy-5 Eicosatetraenoic Acid Peroxidase Sensitive to Antiinflammatory Drugs, Proc. Natl. Acad. Sci., U.S.A. 77:308, 1980 and D. P. Wallach and V. R. Brown, A Novel Preparation of Human Platlet Lipoxygenase, Biochem. Biophys. Acta. 663:361, 1981. Buffy coat prepared above is resuspended in 5-7 volumes of cold 0.1M Tris buffer, pH 7.4 containing 0.154M NaCl. The suspension is centrifuged at 13,300 g for ten minutes at 4° C. The resultant pellet is retained, resuspended in five volumes of cold acetone, recentrifuged at 13,300 g and resuspended in five volumes of cold pentane. The pentane suspension is centrifuged for ten minutes at 13,300 g to give a pellet which is dried in the cold under vacuum with periodic pulverization. The dry powder is stable for several weeks when stored at -80° C.
Enzyme stock solution is prepared in the following manner. About 15 mg of the acetone-pentane powder is suspended in 4 ml of cold tris buffer (0.1M, pH 7.4), allowed to stand for five minutes, and homogenized thoroughly. The homogenate is sonicated three times for 15 seconds each time, diluted to 7 ml with cold tris buffer (0.1M, pH 7.4), and centrifuged at 4° C. for 60 minutes at 13,300 g. The supernatent is retained and diluted to a total of 10 ml with cold tris buffer (0.1M, pH 7.4) to give the stock enzyme solution. Additional dilutions of 2-50 fold are done as necessary to locate optimal enzyme reaction rate in the assay described below.
Substrate solution is prepared at 100 μM or 1.0 μM concentrations of arachidonic acid or linoleic acid in 0.1M tris buffer, pH 9.0 containing 20% ethanol.
The enzyme reaction is followed spectrophotometrically by the appearance of a conjugated diene product at 234 nm. The reaction is monitored at 24° C. using a Gilford Model 2600 spectrophotometer. […] The effects of inhibitors on the reaction are compared with control reactions run under indentical conditions. Routinely, each compounds of the present invention is incubated with the enzyme for five minutes prior to addition of substrate to initiate the reaction. Inhibition expressed as IC50 as molar concentration of the compound required to reduce reaction rate to 50% control.

Structure (SMILES): COc1ccc(CCc2ccc(NC(=O)C(=O)c3[nH]c4cc(C)c(C)cc4c3O)cc2)cc1OC [Example 175, 1H-Indole-2-acetamide, N-[4-[2-(3,4-dimethoxyphenyl)ethyl]phenyl]-3-hydroxy-5,6-dimethyl-α-oxo]
5LOA, % Inhibition ([1]; 1.00 E -5 M): 7.0%
5LOA, % Inhibition ([1]; 2.00 E -5 M): 2.0%
5LOA, % Inhibition ([1]; 2.00 E -6 M): 8.0%
LDAH, % Inhibition ([2]; 2.50 E -5 M): 0.0%

Structure (SMILES): CCCCCCCCCCc1ccc(NC(=O)C(=O)c2oc3cc(OC)c(OC)cc3c2O)cc1 [Example 119, 2-Benzofuranacetamide, N-[4-decylphenyl]-3-hydroxy-5,6-dimethoxy-α-oxo]
IC50 ([2]; conjugated diene at 234 nm, pH 9.0, 24 °C, read-out: LDAH, concentration for 50% inhibition (IC)): 7.9 nM

Structure (SMILES): COc1ccc(CCc2ccc(NC(=O)C(=O)c3oc4cc(OC)c(OC)cc4c3O)cc2)cc1OC [Example 115, 2-Benzofuranacetamide, N-[4-[2-(3,4-dimethoxyphenyl)ethyl]phenyl]-3-hydroxy-5,6-dimethoxy-α-oxo]
LDAH, % Inhibition ([2]; 8.00 E -5 M): 0.0%

Structure (SMILES): COc1ccc(CCc2ccc(NC(=O)C(=O)C3Oc4cc5ccccc5cc4C3=O)cc2)cc1OC (stereo not drawn) [Example 117, Naptho[2,3-b]furan-2-acetamide, N-[4-[2-(3,4-dimethoxyphenyl)ethyl]phenyl]-2,3-dihydro-α,3dioxo]
LDAH, % Inhibition ([2]; 2.50 E -5 M): 0.0%

Structure (SMILES): COc1ccc(CCc2ccc(NC(=O)C3Oc4cc5ccccc5cc4C3=O)cc2)cc1OC (centres unmarked) [Example 101, Naphtho[2,3-b]furan-2-carboxamide, N-[4-[2-(3,4-dimethoxyphenyl)ethyl]phenyl]-2,3-dihydroxy-3-oxo]
LDAH, % Inhibition ([2]; 2.50 E -5 M): 0.0%

Structure (SMILES): O=C(Nc1ccc(CCc2ccc(O)c(O)c2)cc1)C1Oc2c(n(-c3ccccc3)c3ccc(O)cc23)C1=O (centres unmarked) [Example 163, 2H-Furo[3,2-b]indole-2-carboxamide, N-[4-[2-(3,4-dihydroxyphenyl)ethyl]phenyl]-3,4-dihydro-7-hydroxy-3-oxo-4-phenyl]
LDAH, % Inhibition ([2]; 2.50 E -5 M): 0.0%

Structure (SMILES): O=C(Nc1ccc(Cc2ccc(O)c(O)c2)cc1)C1CS(=O)(=O)c2ccccc2C1=O (centres unmarked) [Example 14, N-[4-[(3,4-Dihydroxyphenyl)methyl]phenyl]-3,4-dihydro-4-oxo-2H-1-benzothiopyran-3-carboxamide, 1,1-dioxide]
LDAH, % Inhibition ([2]; 2.50 E -5 M): 0.0%

Next, values leading:

LDAH, % Inhibition ([2]; 2.50 E -5 M): 0.0%
Structure (SMILES): O=C(Nc1ccc(CCc2ccc3ccccc3c2)cc1)C1=C(O)c2ccccc2S(=O)(=O)C1 [Example 51, 4-Hydroxy-N-[4-[2-(2-naphthalenyl)ethyl]phenyl]-2H-1-benzothiopyran-3-carboxamide, 1,1-dioxide]

LDAH, % Inhibition ([2]; 8.00 E -5 M): 0.0%
Structure (SMILES): Cc1ccccc1CCc1ccc(NC(=O)C2=C(O)c3ccccc3S(=O)(=O)C2)cc1 [Example 43]

LDAH, % Inhibition ([2]; 8.00 E -5 M): 0.0%
Structure (SMILES): COc1ccccc1CCc1ccc(NC(=O)C2=C(O)c3ccccc3S(=O)(=O)C2)cc1 [Example 37]

5LOA, % Inhibition ([1]; 1.00 E -5 M): +19.6%
5LOA, % Inhibition ([1]; 2.00 E -5 M): +5.8%
5LOA, % Inhibition ([1]; 4.00 E -5 M): 30.0%
LDAH, % Inhibition ([2]; 2.50 E -5 M): 0.0%
Structure (SMILES): O=C(Nc1ccc(CCc2ccc(C(F)(F)F)cc2)cc1)C1CS(=O)(=O)c2ccccc2C1=O (centres unmarked) [Example 44]
